From article PMC8343220, “The selectivity of α‐adrenoceptor agonists for the human α1A, α1B, and α1D‐adrenoceptors” (Pharmacology Research & Perspectives, 2021)
pIC50: −log10 of the molar value. Where two headings read alike, the source gives them in different places.

Assays:
[1] = target: T1, human α1D‐adrenoceptor (full length) (Homo sapiens, UniProt P25100); assay: ERK1/2‐phosphorylation (Surefire Alphascreen), CHO‐α1D cells; assay type: cell-based; settings: for ERK1/2‐phosphorylation % PDBu at 10 µM: response at 10 µM ligand (no EC50 given)
T1 construct: human α1D‐adrenoceptor (full length) were used; expressed in transfected cells; host or cells: CHO-K1
T1 sequence (P25100 1-572): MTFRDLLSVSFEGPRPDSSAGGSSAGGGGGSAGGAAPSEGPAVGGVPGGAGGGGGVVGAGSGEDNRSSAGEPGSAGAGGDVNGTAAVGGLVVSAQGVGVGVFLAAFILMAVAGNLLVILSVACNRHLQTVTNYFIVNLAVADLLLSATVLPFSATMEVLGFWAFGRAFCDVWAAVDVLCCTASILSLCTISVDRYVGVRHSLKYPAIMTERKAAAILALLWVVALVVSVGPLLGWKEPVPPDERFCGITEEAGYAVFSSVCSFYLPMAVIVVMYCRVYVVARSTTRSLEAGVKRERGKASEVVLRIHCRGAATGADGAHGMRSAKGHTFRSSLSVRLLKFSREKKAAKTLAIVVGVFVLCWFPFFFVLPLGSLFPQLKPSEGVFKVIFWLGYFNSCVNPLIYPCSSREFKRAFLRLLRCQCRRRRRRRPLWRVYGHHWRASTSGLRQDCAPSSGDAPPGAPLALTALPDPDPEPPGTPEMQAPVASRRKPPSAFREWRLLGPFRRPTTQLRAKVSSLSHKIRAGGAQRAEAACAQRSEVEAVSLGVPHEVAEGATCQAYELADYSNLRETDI

[2] = target: T2, human α1A‐adrenoceptor (Homo sapiens, UniProt P35348); assay: Intracellular free calcium mobilization, CHO‐α1A cells; assay type: cell-based
T2 construct: expressed in transfected cells; host or cells: CHO-K1
T2 sequence (P35348 1-466): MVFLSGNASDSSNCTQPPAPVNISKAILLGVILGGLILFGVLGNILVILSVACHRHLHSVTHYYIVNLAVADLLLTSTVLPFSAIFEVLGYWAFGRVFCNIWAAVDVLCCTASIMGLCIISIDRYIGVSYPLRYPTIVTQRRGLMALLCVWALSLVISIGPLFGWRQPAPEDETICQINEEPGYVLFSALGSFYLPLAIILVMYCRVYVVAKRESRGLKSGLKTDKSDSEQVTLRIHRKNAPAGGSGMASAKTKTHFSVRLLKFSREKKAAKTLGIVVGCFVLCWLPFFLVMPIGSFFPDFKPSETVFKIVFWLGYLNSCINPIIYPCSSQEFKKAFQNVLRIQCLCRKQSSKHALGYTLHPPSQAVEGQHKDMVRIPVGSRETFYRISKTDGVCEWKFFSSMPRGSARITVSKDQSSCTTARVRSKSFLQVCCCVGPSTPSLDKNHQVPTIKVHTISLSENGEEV

[3] = target: T3, human α1B‐adrenoceptor (Homo sapiens, UniProt P35368); assay: Intracellular free calcium mobilization, CHO‐α1B cells; assay type: cell-based; settings: for Intracellular calcium release % ionomycin: maximal response as % of 10 µM ionomycin response
T3 construct: expressed in transfected cells; host or cells: CHO-K1
T3 sequence (P35368 1-520): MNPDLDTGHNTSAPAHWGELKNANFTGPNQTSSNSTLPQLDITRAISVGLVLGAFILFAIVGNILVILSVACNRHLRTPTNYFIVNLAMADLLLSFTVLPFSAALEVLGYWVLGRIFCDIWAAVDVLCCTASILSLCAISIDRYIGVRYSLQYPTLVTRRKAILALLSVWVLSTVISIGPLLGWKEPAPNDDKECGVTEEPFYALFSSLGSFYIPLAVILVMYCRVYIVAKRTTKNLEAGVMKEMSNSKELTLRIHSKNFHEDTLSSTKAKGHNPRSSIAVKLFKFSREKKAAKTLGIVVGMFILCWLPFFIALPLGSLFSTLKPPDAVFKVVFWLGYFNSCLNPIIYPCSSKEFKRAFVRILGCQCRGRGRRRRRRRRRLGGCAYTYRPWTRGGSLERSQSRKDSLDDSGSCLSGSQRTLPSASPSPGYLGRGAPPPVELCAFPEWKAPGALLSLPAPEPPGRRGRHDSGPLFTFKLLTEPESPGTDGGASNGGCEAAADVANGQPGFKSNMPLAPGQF

[4] = target: T3, human α1B‐adrenoceptor; assay: ^3H‐prazosin whole‐cell radioligand binding, CHO‐α1B cells; settings: CHO‐α1B cells; for Log KD, ^3H‐prazosin binding: whole‐cell binding (from Table 1), given as log KD (negative numbers); for Log KD α1B, ^3H‐prazosin whole cell binding: given as log KD (negative), mean ± SEM
[5] = target: T1, human α1D‐adrenoceptor (full length); assay: Intracellular free calcium mobilization, CHO‐α1D cells; assay type: cell-based; settings: for Intracellular calcium release % ionomycin: maximal response as % of 10 µM ionomycin
[6] = target: T2, human α1A‐adrenoceptor; assay: ^3H‐prazosin whole‐cell radioligand binding, CHO‐α1A cells; settings: for Log KD α1A, ^3H‐prazosin whole cell binding: given as log KD (negative), mean ± SEM
[7] = target: T1, human α1D‐adrenoceptor (full length); assay: ^3H‐prazosin whole‐cell radioligand binding, CHO‐α1D cells; settings: for Log KD α1D, ^3H‐prazosin whole cell binding: given as log KD (negative), mean ± SEM, 'early plateau' = specific binding not fully inhibited; for 3H‐prazosin binding Log KD: whole‐cell binding (from Table 1), log values given negative
[8] = tested on: parental CHO cell line without any transfected receptors; assay: ERK1/2‐phosphorylation, parent CHO cells without transfected receptors; assay type: cell-based, Chinese hamster; settings: for ERK1/2-phosphorylation % PDBu: maximal response as % of PDBu (10μM) response
[9] = target: T3, human α1B‐adrenoceptor; assay: ERK1/2‐phosphorylation (Surefire Alphascreen), CHO‐α1B cells; assay type: cell-based
[10] = CHO‐α1D cells, log values given negative
[11] = CHO‐α1D cells, maximal response as % of PDBu
[12] = CHO‐α1B cells, given as log EC50 (negative numbers)
[13] = CHO cells without transfected receptors, mean ± s.e.m.
[14] = higher affinity for α1A than α1B

## C[C@](N)(Cc1ccc(O)c(O)c1)C(=O)O [Methyldopa]
[1]; [10]
  ERK1/2‐phosphorylation Log EC50: No response
[1]; [11]
  ERK1/2‐phosphorylation % PDBu: No response
[2]; CHO‐α1A cells, given as log EC50 (negative)
  Intracellular calcium release Log EC50: No response
[2]; CHO‐α1A cells, maximal response as % of 10 µM ionomycin
  Intracellular calcium release % ionomycin: No response
[3]; [12]
  Intracellular calcium release Log EC50: No response
[3]; CHO‐α1B cells
  Intracellular calcium release % ionomycin: No response
[4]
  Log KD, ^3H‐prazosin binding: No binding
  Log KD α1B, ^3H‐prazosin whole cell binding: No binding
[5]; [10]
  Intracellular calcium release Log EC50: No response
[5]; CHO‐α1D cells
  Intracellular calcium release % ionomycin: No response
[6]; CHO‐α1A cells
  Log KD α1A, ^3H‐prazosin whole cell binding: No binding
[7]; CHO‐α1D cells, whole‐cell binding, given as IC50 > log value
  pIC50: < 4.00
[7]; CHO‐α1D cells
  Log KD α1D, ^3H‐prazosin whole cell binding: No binding
[8]; [13]
  ERK1/2-phosphorylation % PDBu: No response
  ERK1/2-phosphorylation Log EC50: No response

## O=C1Cc2cc(CCN3CCN(c4nsc5ccccc45)CC3)c(Cl)cc2N1 [ziprasidone]
[8]; [13]
  ERK1/2-phosphorylation % PDBu: No response
  ERK1/2-phosphorylation Log EC50: No response

## Cc1ccc(/N=C/N(C)/C=N/c2ccc(C)cc2C)c(C)c1 [Amitraz]
[1]
  ERK1/2‐phosphorylation % PDBu: No response
  ERK1/2‐phosphorylation Log EC50: No response
[2]
  Intracellular calcium release Log EC50: No response
[3]
  Intracellular calcium release Log EC50: No response
[5]
  Intracellular calcium release Log EC50: No response
[6]
  Affinity selectivity ratio α1A vs α1B: >33.1 fold
[7]
  Affinity selectivity ratio α1B vs α1D: >12.0 fold
[8]
  ERK1/2-phosphorylation Log EC50: No response
[8]; [13]
  ERK1/2-phosphorylation % PDBu: No response

## Cc1sc(C)c2c1CCC=C2c1cnc[nH]1.O=C(O)/C=C\C(=O)O [T‐CG 1000]
[1]; CHO‐α1D cells
  ERK1/2‐phosphorylation % PDBu at 10 µM: 16.3 ± 5.9%
[2]; CHO‐α1A cells, response at 10 μM ligand, no EC50 obtained
  Intracellular calcium release % ionomycin at 10 µM: 21.0 ± 1.9%
[3]; [12]
  Intracellular calcium release Log EC50: No response
[3]; CHO‐α1B cells
  Intracellular calcium release % ionomycin: No response
[4]
  Log KD, ^3H‐prazosin binding: −5.18
  Log KD α1B, ^3H‐prazosin whole cell binding: −5.18 ± 0.06
[5]; [10]
  Intracellular calcium release Log EC50: No response
[5]; CHO‐α1D cells
  Intracellular calcium release % ionomycin: No response
[6]; CHO‐α1A cells
  Log KD α1A, ^3H‐prazosin whole cell binding: −5.96 ± 0.05
[6]; [14]
  Affinity selectivity ratio α1A vs α1B: 6.0 fold
[6]; higher affinity for α1A than α1D
  Affinity selectivity ratio α1A vs α1D: 1.1 fold
[7]; CHO‐α1D cells
  3H‐prazosin binding Log KD: −5.91
  Log KD α1D, ^3H‐prazosin whole cell binding: −5.91 ± 0.12
[7]; higher affinity for α1D than α1B
  Affinity selectivity ratio α1B vs α1D: 5.4 fold

## CN[C@@H](C)[C@H](O)c1ccccc1 [Epdedrine]
[9]
  ERK1/2‐phosphorylation % PDBu: 19.1 ± 4.0%
  ERK1/2‐phosphorylation Log EC50: −4.67 ± 0.17
[3]
  Intracellular calcium release % Ionomycin at 100 µM: 18.5 ± 2.9%

## CCCC(=O)O[C@@H]1[C@@H](C)[C@@]2(O)[C@@H](C=C(CO)C[C@]3(O)C(=O)C(C)=C[C@@H]23)[C@@H]2C(C)(C)[C@]12OC(=O)CCC [PDBu, Phorbol 12,13‐dibutyrate]
[8]
  ERK1/2‐phosphorylation response fold over basal: 7.5 ± 0.9 fold over basal

## CCN1CCc2nc(N)oc2CC1 [BHT933]
[1]; [10]
  ERK1/2‐phosphorylation Log EC50: No response
[1]; [11]
  ERK1/2‐phosphorylation % PDBu: No response
[2]; CHO‐α1A cells, response at 100 μM ligand, no EC50 obtained
  Intracellular calcium release % Ionomycin at 100 µM: 25.5 ± 3.7%
[3]; CHO‐α1B cells, response at 100 µM ligand (no EC50 given), % of ionomycin response
  Intracellular calcium release % Ionomycin at 100 µM: 16.6 ± 2.1%
[4]
  Log KD, ^3H‐prazosin binding: No binding
  Log KD α1B, ^3H‐prazosin whole cell binding: No binding
[5]; [10]
  Intracellular calcium release Log EC50: No response
[5]; CHO‐α1D cells
  Intracellular calcium release % ionomycin: No response
[6]; CHO‐α1A cells, apparent KD: maximum concentration did not inhibit all specific binding, IC50 extrapolated
  Log KD α1A (apparent), ^3H‐prazosin whole cell binding: −3.60 ± 0.06^apparent
[6]; [14]
  Affinity selectivity ratio α1A vs α1B: >4.0 fold
[7]; CHO‐α1D cells
  3H‐prazosin binding Log KD: −3.70
[7]; CHO‐α1D cells, apparent KD: maximum concentration did not inhibit all specific binding, IC50 extrapolated
  Log KD α1D (apparent), ^3H‐prazosin whole cell binding: −3.70 ± 0.18^apparent
[7]; higher affinity for α1D than α1A
  Affinity selectivity ratio α1A vs α1D: 1.3 fold

## O=C1Cc2cc(CCN3CCN(c4nsc5ccccc45)CC3)c(Cl)cc2N1 [Ziprasidone]
[1]; CHO‐α1D cells
  ERK1/2‐phosphorylation % PDBu at 10 µM: 4.6 ± 2.7%
[5]; [10]
  Intracellular calcium release Log EC50: No response
[5]; CHO‐α1D cells
  Intracellular calcium release % ionomycin: No response
